US20120220581A1, “IMIDAZO[1,2-b]PYRIDAZINE DERIVATIVES AND THEIR USE AS PDE10 INHIBITORS” (Janssen-Cilag, S.A., priority 2009, published 2012)
Like-named read-outs stand apart in the source and are kept apart here.

Key:
[1] = target: T1, Rat recombinant PDE10A (rPDE10A2) (Rattus norvegicus, UniProt Q9QYJ6); test: In vitro assay PDE10A (SPA, 3H-cAMP); assay type: biochemical
T1 construct: inferred from the Ni metal chelate purification; made in house; host or cells: Sf9 insect cells (baculovirus)
T1 sequence (Q9QYJ6 1-794): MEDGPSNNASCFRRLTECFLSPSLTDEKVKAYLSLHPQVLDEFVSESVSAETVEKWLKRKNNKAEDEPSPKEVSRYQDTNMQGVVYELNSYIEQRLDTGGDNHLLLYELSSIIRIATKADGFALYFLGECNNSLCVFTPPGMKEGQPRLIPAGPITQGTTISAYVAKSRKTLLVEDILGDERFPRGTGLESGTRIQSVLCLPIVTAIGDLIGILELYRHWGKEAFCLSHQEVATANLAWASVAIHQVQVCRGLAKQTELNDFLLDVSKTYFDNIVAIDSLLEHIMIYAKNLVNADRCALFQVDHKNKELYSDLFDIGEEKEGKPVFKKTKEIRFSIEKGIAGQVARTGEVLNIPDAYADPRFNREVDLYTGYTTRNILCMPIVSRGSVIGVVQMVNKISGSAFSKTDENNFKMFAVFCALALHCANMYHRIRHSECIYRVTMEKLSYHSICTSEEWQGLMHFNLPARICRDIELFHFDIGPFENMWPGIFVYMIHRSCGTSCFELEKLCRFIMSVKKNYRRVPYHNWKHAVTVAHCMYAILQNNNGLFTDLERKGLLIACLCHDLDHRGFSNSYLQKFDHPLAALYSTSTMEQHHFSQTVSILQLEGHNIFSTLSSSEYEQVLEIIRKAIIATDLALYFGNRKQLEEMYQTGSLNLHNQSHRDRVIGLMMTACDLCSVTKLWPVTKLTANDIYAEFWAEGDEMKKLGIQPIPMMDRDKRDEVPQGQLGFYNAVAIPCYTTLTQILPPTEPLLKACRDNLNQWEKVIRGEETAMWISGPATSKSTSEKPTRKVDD
Method in brief: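 Rat PDE10A2 expressed in Sf9 cells and Ni-purified; incubated with 60 nM cAMP plus 0.008 μCi 3H-cAMP in 50 mM Tris pH 7.8, 8.3 mM MgCl2, 1.7 mM EGTA for 60 min at room temperature. Product quantified by scintillation proximity counting; final DMSO 1%.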

[2] = target: other members of the PDE family (Homo sapiens, UniProt O00408); test: In vitro PDE selectivity assay (SPA), other members of the PDE family (protocols in Table A); assay type: biochemical; conditions: hPDE2A; read-out: PDE 2A (expressed as pIC50) (converted)
Chain of other members of the PDE family (Homo sapiens, UniProt O00408) (O00408 whole entry): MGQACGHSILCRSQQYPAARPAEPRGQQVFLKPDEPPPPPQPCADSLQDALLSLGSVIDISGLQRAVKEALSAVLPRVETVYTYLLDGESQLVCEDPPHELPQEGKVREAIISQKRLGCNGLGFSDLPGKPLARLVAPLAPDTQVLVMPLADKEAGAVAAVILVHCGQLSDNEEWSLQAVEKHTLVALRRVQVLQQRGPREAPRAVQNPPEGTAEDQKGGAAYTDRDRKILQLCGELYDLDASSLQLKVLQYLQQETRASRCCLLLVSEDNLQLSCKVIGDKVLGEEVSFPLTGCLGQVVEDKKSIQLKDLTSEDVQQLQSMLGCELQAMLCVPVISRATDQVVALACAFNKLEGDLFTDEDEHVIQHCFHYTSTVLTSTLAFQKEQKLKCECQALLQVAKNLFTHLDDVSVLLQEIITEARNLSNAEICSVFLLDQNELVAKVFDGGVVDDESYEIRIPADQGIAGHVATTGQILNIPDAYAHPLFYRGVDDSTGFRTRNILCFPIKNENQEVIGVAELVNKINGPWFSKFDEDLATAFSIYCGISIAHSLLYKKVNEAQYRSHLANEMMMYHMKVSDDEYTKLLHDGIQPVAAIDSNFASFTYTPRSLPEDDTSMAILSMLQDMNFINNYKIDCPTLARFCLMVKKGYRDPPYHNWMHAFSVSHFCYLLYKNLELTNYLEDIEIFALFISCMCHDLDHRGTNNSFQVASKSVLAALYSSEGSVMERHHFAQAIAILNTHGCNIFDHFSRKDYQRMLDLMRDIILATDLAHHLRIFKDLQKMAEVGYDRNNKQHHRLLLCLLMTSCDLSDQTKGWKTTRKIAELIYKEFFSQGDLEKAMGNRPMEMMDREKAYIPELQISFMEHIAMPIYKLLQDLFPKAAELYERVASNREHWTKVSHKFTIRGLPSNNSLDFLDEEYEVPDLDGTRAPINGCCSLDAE
Experimental: (§1) Rat recombinant PDE10A (rPDE10A2) was expressed in Sf9 cells using a recombinant rPDE10A baculovirus construct. Cells were harvested after 48 h of infection and the rPDE10A protein was purified by metal chelate chromatography on Ni-sepharose 6FF. Tested compounds were dissolved and diluted in 100% DMSO to a concentration 100 fold of the final concentration in the assay. Compound dilutions (0.4 μl) were added in 384 well plates to 20 μl of incubation buffer (50 mM Tris pH 7.8, 8.3 mM MgCl2, 1.7 mM EGTA). 10 μl of rPDE10A enzyme in incubation buffer was added and the reaction was started by addition of 10 μl substrate to a final concentration of 60 nM cAMP and 0.008 μCi ^3H-cAMP. The reaction was incubated for 60 minutes at room temperature. After incubation, the reaction was stopped with 20 μl of stop solution consisting of 17.8 mg/ml PDE SPA (scintillation proximity assay) beads. After sedimentation of the beads during 30 minutes the radioactivity was measured in a Perkin Elmer Topcount scintillation counter and results were expressed as cpm. For blanc values the enzyme was omitted from the reaction and replaced by incubation buffer. Control values were obtained by addition of a final concentration of 1% DMSO instead of compound. The same assay principle is applied for the measurement of the affinity of the compound for other members of the PDE family with appropriate modifications in incubation buffer, substrate concentration, incubation time and stop solution. An overview of the different protocols is presented in table A. A best fit curve is fitted by a minimum sum of squares method to the plot of % of control value substracted with blanc value versus compound concentration and the half maximal inhibitory concentration (IC50) value is derived from this curve.
(§2) The compounds of the invention are generally selective for PDE10 compared to other PDEs and there are a few that also have affinity for PDE1B1, 4D3 and 5A3.

[3] = test system: apomorphine-induced stereotypy in rats; test: Apomorphine-induced stereotypy in rats (APO); assay type: in vivo; conditions: Rattus norvegicus
Experimental: Apomorphine (1.0 mg/kg, i.v.)-induced stereotypy (compulsive sniffing, licking, chewing) was scored every 5 min over the first hour after injection of apomorphine, following a 1 hour interval pre-treatment with the test compound. The score system was: (3) pronounced, (2) moderate, (1) slight, and (0) absent.

PDE10 = target: T2, PDE10 (Rattus norvegicus, UniProt Q9QYJ6); test: PDE10 occupancy ([3H]-MP-10, striatum); assay type: in vivo; conditions: rat; for ED50: dose response; for receptor occupancy at 10 mg/kg: single dose 10 mg/kg
T2 construct: from tissue; host or cells: rat brain sections, striatum (in vivo dosing, ex vivo autoradiography)
T2 sequence (Q9QYJ6 1-794): T1 sequence (Q9QYJ6 1-794)
Experimental: Dose-response or single dose experiments were performed to measure PDE10 occupancy 1 hour after subcutaneous (s.c.) or oral (p.o.) administration. Male Wistar rats (200 g) were treated by s.c. or p.o. administration of various PDE10 inhibitors. The PDE10 radioligand [^3H]-MP-10 (10 μCi/animal) was injected intravenously (i.v.) 30 minutes before sacrifice. Brains were immediately removed from the skull and rapidly frozen. Twenty μm-thick brain sections were cut using a cryostat-microtome, thaw-mounted on microscope slides and loaded in a β-imager to quantify PDE10 occupancy in the striatum.

PDE4D3 = PDE4D3 (Homo sapiens, UniProt Q08499); test: In vitro PDE selectivity assay (SPA), PDE4D3; assay type: biochemical; conditions: hPDE4D3; read-out: PDE 4D3 (expressed as pIC50) (converted)
Chain of PDE4D3 (Q08499 1-673 isoform Q08499-2): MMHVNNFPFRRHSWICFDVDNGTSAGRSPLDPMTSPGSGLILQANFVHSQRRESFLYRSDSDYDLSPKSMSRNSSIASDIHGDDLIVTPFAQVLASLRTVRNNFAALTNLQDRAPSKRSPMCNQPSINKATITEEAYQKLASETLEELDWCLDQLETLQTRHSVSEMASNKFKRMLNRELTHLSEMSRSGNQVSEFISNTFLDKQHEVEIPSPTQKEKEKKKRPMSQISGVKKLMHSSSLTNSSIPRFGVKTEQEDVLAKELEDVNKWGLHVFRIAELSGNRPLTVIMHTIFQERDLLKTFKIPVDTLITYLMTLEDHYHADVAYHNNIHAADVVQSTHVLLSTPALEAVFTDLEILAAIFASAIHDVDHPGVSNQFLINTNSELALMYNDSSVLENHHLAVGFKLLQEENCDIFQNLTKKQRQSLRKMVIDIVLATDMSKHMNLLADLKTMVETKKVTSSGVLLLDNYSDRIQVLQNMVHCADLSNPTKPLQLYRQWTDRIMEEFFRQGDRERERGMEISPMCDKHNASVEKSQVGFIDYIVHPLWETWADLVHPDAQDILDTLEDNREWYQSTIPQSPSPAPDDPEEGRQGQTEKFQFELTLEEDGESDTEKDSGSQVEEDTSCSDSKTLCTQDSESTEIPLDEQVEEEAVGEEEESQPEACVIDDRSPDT
Experimental: as §1, §2

[4] = target: other members of the PDE family (Homo sapiens, UniProt O76083); test: In vitro PDE selectivity assay (SPA), other members of the PDE family (protocols in Table A); assay type: biochemical; conditions: hPDE9A; read-out: PDE 9A (expressed as pIC50) (converted)
Chain of other members of the PDE family (Homo sapiens, UniProt O76083) (O76083 whole entry): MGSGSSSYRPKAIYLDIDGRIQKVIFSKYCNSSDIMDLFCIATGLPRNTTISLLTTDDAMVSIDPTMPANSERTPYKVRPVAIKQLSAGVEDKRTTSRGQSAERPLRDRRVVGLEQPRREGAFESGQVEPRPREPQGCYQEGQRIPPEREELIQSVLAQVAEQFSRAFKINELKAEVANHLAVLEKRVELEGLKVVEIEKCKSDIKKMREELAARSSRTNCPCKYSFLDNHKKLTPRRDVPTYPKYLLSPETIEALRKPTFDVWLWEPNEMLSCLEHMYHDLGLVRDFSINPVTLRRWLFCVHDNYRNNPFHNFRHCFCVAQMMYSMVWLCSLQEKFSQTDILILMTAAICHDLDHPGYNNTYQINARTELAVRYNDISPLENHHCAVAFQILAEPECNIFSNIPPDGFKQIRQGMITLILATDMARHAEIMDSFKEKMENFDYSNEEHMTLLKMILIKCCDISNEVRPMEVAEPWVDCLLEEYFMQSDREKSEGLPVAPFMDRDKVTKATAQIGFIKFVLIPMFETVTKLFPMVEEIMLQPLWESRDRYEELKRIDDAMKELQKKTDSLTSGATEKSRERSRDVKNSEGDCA
Experimental: as §1, §2

[5] = target: other members of the PDE family (Homo sapiens, UniProt Q13946); test: as above; assay type: biochemical; conditions: hPDE7A1; read-out: PDE 7A (expressed as pIC50) (converted)
Chain of other members of the PDE family (Homo sapiens, UniProt Q13946) (Q13946 whole entry): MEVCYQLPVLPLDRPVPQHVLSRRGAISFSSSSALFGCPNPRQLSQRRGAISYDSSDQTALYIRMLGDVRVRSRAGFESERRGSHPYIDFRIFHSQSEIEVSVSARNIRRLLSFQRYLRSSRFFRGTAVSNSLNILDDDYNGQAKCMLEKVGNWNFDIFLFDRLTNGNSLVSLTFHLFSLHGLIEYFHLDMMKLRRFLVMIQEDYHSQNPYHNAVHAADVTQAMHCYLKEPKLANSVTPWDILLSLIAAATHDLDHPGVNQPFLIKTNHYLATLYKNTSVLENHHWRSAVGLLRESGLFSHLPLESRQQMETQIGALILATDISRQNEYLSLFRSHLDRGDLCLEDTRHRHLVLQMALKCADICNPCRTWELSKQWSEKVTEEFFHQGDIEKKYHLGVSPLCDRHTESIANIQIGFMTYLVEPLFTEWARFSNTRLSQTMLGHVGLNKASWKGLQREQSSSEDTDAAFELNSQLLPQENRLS
Experimental: as §1, §2

[6] = target: other members of the PDE family (Homo sapiens, UniProt Q14432); test: as above; assay type: biochemical; conditions: hPDE3A; read-out: PDE 3A (expressed as pIC50) (converted)
Chain of other members of the PDE family (Homo sapiens, UniProt Q14432) (Q14432 whole entry): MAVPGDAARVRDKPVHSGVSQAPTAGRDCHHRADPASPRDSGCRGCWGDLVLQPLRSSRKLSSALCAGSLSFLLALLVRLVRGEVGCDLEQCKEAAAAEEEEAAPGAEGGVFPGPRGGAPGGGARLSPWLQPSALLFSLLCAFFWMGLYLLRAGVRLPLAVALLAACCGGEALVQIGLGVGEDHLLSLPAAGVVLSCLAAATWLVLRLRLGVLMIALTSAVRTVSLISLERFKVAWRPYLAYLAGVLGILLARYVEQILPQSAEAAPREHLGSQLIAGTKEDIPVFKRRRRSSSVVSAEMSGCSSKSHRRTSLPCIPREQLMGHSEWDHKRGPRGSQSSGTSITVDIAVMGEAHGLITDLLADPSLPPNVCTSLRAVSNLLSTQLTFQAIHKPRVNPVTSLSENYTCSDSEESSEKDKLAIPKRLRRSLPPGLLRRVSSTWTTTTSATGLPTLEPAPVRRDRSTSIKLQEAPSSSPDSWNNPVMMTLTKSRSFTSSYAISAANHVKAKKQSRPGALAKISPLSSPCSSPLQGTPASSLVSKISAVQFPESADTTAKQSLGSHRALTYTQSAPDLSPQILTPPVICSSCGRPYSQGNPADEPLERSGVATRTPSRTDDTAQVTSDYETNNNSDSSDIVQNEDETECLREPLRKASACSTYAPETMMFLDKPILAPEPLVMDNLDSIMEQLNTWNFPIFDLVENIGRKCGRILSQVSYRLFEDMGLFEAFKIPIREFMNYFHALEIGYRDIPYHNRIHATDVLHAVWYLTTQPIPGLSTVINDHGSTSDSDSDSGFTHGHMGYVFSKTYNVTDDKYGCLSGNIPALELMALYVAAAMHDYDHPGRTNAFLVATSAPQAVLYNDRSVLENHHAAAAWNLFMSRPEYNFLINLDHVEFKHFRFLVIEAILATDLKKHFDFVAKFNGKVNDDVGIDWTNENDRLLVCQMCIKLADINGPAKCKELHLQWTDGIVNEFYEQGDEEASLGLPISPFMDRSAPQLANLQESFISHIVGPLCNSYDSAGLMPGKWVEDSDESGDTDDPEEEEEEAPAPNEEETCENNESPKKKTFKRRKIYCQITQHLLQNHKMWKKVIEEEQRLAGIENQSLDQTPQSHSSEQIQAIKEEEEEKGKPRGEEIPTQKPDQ
Experimental: as §1, §2

[7] = target: other members of the PDE family (Homo sapiens, UniProt Q9HCR9); test: as above; assay type: biochemical; conditions: hPDE11A4; read-out: PDE 11A4 (expressed as pIC50) (converted)
Chain of other members of the PDE family (Homo sapiens, UniProt Q9HCR9) (Q9HCR9 whole entry): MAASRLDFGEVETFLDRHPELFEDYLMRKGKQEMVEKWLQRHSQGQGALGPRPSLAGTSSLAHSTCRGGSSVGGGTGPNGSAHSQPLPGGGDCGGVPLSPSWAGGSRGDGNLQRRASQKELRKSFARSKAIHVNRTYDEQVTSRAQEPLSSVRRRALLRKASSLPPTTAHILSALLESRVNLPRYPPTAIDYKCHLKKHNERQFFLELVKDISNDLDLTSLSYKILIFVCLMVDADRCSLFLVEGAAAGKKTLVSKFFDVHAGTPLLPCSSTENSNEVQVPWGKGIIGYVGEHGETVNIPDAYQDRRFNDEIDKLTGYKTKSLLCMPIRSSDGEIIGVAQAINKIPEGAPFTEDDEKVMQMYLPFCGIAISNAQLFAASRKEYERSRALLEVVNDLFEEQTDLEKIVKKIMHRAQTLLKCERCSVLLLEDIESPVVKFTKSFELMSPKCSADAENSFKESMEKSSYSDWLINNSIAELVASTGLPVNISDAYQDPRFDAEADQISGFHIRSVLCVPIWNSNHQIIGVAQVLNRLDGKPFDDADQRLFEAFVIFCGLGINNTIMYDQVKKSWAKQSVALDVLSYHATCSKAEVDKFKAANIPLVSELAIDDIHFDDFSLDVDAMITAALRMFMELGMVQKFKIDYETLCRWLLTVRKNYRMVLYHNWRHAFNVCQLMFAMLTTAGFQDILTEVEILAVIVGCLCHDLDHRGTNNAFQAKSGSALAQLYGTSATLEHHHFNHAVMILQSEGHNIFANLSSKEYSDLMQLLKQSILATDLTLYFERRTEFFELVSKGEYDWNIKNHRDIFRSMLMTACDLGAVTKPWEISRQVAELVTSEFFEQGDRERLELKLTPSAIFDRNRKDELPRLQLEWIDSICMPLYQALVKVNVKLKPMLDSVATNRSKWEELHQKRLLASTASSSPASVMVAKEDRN
Experimental: as §1, §2

PDE5A3 = PDE5A3 (Homo sapiens, UniProt O76074); test: In vitro PDE selectivity assay (SPA), PDE5A3; assay type: biochemical; conditions: hPDE5A3; read-out: PDE 5A3 (expressed as pIC50) (converted)
Experimental: as §1, §2

[8] = Table 4 in vitro selectivity, read-out: PDE 10A2 (expressed as pIC50) (converted)
[9] = pIC50 corresponds to the −log IC50 expressed in mol/L, read-out: PDE10A2 pIC50 (converted)
[10] = dose at which 50% of the tested animals show the effect, ≧: active in 30% of the animals at the indicated dose, ≦: active in 60%
[11] = n.d.: found not active at threshold dose 2.5 mg/kg or 10 mg/kg (a), not further tested
[12] = sc, subcutaneous, read-out: SD sc % occupancy at 10 mg/kg
[13] = oral, read-out: SD po % occupancy at 10 mg/kg

Compound | IC50 [1, 8] | IC50 [1, 9] | IC50 [2] | ED50 [3, 11] | receptor occupancy at 10 mg/kg (PDE10; [12]) | also measured
COC(C)(C)Cc1ccc(-c2c(C)nc3c(-c4ccncc4)cc(C)nn23)cn1 [compound 48, 3-[6-(2-methoxy-2-methylpropyl)-3-pyridinyl]-2,6-dimethyl-8-(4-pyridinyl)-imidazo[1,2-b]pyridazine] | 0.115 µM | 0.115 µM | > 10 µM | – | – | ED50 [3, 10]: ≥ 2.5 mg/kg; ED50 (PDE10; oral administration, read-out: PDE10 in vivo occupancy ED50 po): 4.3 mg/kg
Cc1nc2c(N3CCOCC3)ccnn2c1-c1cnn(CC(F)(F)C2CC2)c1 [compound 128, 3-[1-(2-cyclopropyl-2,2-difluoroethyl)-1H-pyrazol-4-yl]-2-methyl-8-(4-morpholinyl)-imidazo[1,2-b]pyridazine] | – | 0.0501 µM | – | > 10 mg/kg | 40% | –
CCc1nc2c(-c3ccncc3)ccnn2c1-c1cnn(CCOC)c1 [compound 132, 2-ethyl-3-[1-(2-methoxyethyl)-1H-pyrazol-4-yl]-8-(4-pyridinyl)-imidazo[1,2-b]pyridazine] | – | 0.0708 µM | – | > 10 mg/kg | 44% | –
Cc1nc2c(N3CCOCC3)ccnn2c1-c1ccc(OCC2CC2)nc1 [compound 65, 3-[6-(cyclopropylmethoxy)-3-pyridinyl]-2-methyl-8-(4-morpholinyl)-imidazo[1,2-b]pyridazine] | – | 0.162 µM | – | > 10 mg/kg | 17% | –
Cc1nc2c(N3CCOCC3)ccnn2c1-c1cnn(CC2CC2(F)F)c1 (centres unmarked) [compound 118] | 0.0501 µM | 0.0501 µM | > 10 µM | – | – | IC50 (PDE4D3): > 10 µM; IC50 [4]: > 10 µM; IC50 [5]: > 10 µM; IC50 [6]: > 10 µM; IC50 [7]: > 10 µM; ED50 ([3]; po, * compound not soluble, tested orally as a suspension, ≧: active in 30% of the animals at the indicated dose, ≦: active in 60%): ≤ 10 mg/kg; receptor occupancy at 10 mg/kg (PDE10; [13]): 4%
Cc1nc2c(N3CCOCC3)ccnn2c1-c1cnn(C2CCOCC2)c1 [compound 117, 2-methyl-8-(4-morpholinyl)-3-[1-(tetrahydro-2H-pyran-4-yl)-1H-pyrazol-4-yl]-imidazo[1,2-b]pyridazine] | 0.0977 µM | 0.0977 µM | > 10 µM | – | – | IC50 (PDE4D3): > 10 µM; IC50 (PDE5A3): > 10 µM; IC50 [4]: > 10 µM; IC50 [5]: > 10 µM; IC50 [6]: > 10 µM
COCCn1cc(-c2c(C)nc3c(N4CCOCC4)cc(C(F)(F)F)nn23)cn1 [compound 130, 3-[1-(2-methoxyethyl)-1H-pyrazol-4-yl]-2-methyl-8-(4-morpholinyl)-6-(trifluoromethyl)-imidazo[1,2-b]pyridazine] | – | 0.219 µM | – | – | – | ED50 ([3]; po, n.d.: found not active at threshold dose 2.5 mg/kg or 10 mg/kg (a), * not soluble, tested orally as a suspension): > 10 mg/kg; receptor occupancy at 10 mg/kg (PDE10; [13]): 6%
COC(C)(C)Cc1ccc(-c2c(C)nc3c(-c4ccncc4)ccnn23)cn1 [compound 7, 3-[6-(2-methoxy-2-methylpropyl)-3-pyridinyl-2-methyl-8-(4-pyridinyl)-imidazol-1,2-b]pyridazine] | 0.0257 µM | 0.0257 µM | > 10 µM | – | – | ED50 [3, 10]: 0.3 mg/kg; ED50 (PDE10; sc, subcutaneous administration, read-out: PDE10 in vivo occupancy ED50 sc): 1.6 mg/kg
COC(C)(C)COc1ccc(-c2c(C)nc3c(N4CCOCC4)ccnn23)cn1 [compound 18, 3-[6-(2-methoxy-2-methylpropoxy)-3-pyridinyl]-2-methyl-8-(4-morpholinyl)-imidazo[,2-b]pyridazine] | 0.17 µM | 0.17 µM | > 10 µM | – | 46% | IC50 (PDE4D3): > 10 µM; IC50 [4]: > 10 µM; IC50 [5]: > 10 µM; IC50 [6]: > 10 µM; IC50 [7]: > 10 µM; ED50 [3, 10]: 5 mg/kg
Cc1nc2c(N3CCOCC3)ccnn2c1-c1ccnc(OC(C)C)c1 [compound 67, 2-methyl-3-[2-(1-methylethoxy)-4-pyridinyl]-8-(4-morpholinyl)-imidazo[1,2-b]pyridazine] | – | 0.0871 µM | – | > 10 mg/kg | 1% | –
COCCn1cc(-c2c(OC)nc3c(N4CCOCC4)ccnn23)cn1 [compound 140, 2-methoxy-3-[1-(2-methoxyethyl)-1H-pyrazol-4-yl]-8-(4-morpholinyl)-imidazo[1,2-b]pyridazine] | – | 0.174 µM | – | > 10 mg/kg | – | receptor occupancy at 10 mg/kg (PDE10; [13]): 0%
